Measured values taken from patent publication US20160242416A1, “FUNGICIDAL ISOXAZOLINE CARBINOLS” (E I DU PONT DE NEMOURS AND COMPANY, priority 2015, published 2016).

Legend:
Zymoseptoria tritici = assay: Test E: wheat leaf blotch, preventive spray on wheat seedlings; details: 100 = 100% disease control; for Test E rating (% disease control): 10 ppm, wheat leaf blotch, 0 = no control
Excerpt: General protocol for preparing test solutions for Tests A-G: the test compounds were first dissolved in acetone in an amount equal to 3% of the final volume and then suspended at the desired concentration (in ppm) in acetone and purified water (50/50 mix by volume) containing 250 ppm of the surfactant PEG400 (polyhydric alcohol esters). The resulting test suspensions were then used in Tests A-G. Compounds were sprayed at a concentration of 50 ppm (*) or 10 ppm to the point of run-off on the test plants, the equivalent of a rate of 200 g/ha or 40 g/ha, respectively.
The test solution was sprayed to the point of run-off on wheat seedlings. The following day the seedlings were inoculated with a spore suspension of Zymoseptoria tritici (the causal agent of wheat leaf blotch) and incubated in a saturated atmosphere at 24° C. for 48 h, and then moved to a growth chamber at 20° C. for 17 days, after which time visual disease ratings were made.
Compounds with an asterisks (*) were applied at a concentration of 50 ppm, otherwise test solutions were applied at 10 ppm.

Botrytis cinerea = assay: Test B: gray mold, preventive spray on tomato seedlings; details: 100 = 100% disease control; for Test B rating (% disease control): 10 ppm, gray mold on tomato, 0 = no control
[1] = tested on: Erysiphe graminis f sp. tritici; assay: Test G: wheat powdery mildew, preventive spray on wheat seedlings; details: 100 = 100% disease control; for Test G rating (% disease control): 10 ppm, wheat powdery mildew, 0 = no control
[2] = tested on: Puccinia recondita f sp. tritici; assay: Test F: wheat leaf rust, preventive spray on wheat seedlings; details: 100 = 100% disease control; for Test F rating (% disease control): 10 ppm, wheat leaf rust, 0 = no control
Stagonospora nodorum = assay: Test D: wheat glume blotch, preventive spray on wheat seedlings; details: 100 = 100% disease control; for Test D rating (% disease control): 10 ppm, wheat glume blotch, 0 = no control
[3] = 10 ppm test solution, 0 = no control relative to controls

Compound: CCC(C)(C)C(O)(Cn1cncn1)C1=NOC(Cc2ccc(Cl)cc2)C1 (single isomer, unassigned) [Compound 17]
- Test E rating (% disease control) (Zymoseptoria tritici): 7%
- Test B rating (% disease control) (Botrytis cinerea): 51%
- Test G rating (% disease control) [1]: 100%
- Test F rating (% disease control) [2]: 100%
- Test D rating (% disease control) (Stagonospora nodorum): 98%

Compound: C[S+]([O-])c1ccc(C2CC(C(O)(Cn3cncn3)c3ccc(Cl)cc3)=NO2)cc1 (single isomer, unassigned) [Compound 111]
- Test E rating (% disease control) (Zymoseptoria tritici): 9%
- Test B rating (% disease control) (Botrytis cinerea): 0%
- Test G rating (% disease control) [1]: 98%
- Test F rating (% disease control) [2]: 100%
- Test D rating (% disease control) (Stagonospora nodorum): 0%

Compound: CC(C)(C)C(O)(Cn1cncn1)C1=NOC(c2ccc(-n3cc(Br)cn3)cc2)C1 (single isomer, unassigned) [Compound 8]
- Test E rating (% disease control) (Zymoseptoria tritici): 0%
- Test B rating (% disease control) (Botrytis cinerea): 0%
- Test G rating (% disease control) [1]: 100%
- Test F rating (% disease control) [2]: 0%
- Test D rating (% disease control) (Stagonospora nodorum): 0%

Compound: OC(Cn1cncn1)(C1=NOC(c2ccc(Cl)cc2)C1)c1ccccc1F (single isomer, unassigned) [Compound 135]
- Test E rating (% disease control) (Zymoseptoria tritici): 1%
- Test B rating (% disease control) (Botrytis cinerea): 0%
- Test G rating (% disease control) [1]: 81%
- Test F rating (% disease control) [2]: 98%
- Test D rating (% disease control) (Stagonospora nodorum): 69%

Compound: CC(C)(C)CC(O)(Cn1cncn1)C1=NOC(COc2ccc(Br)cc2)C1 (single isomer, unassigned) [Compound 170]
- Test E rating (% disease control) (Zymoseptoria tritici): 68%
- Test B rating (% disease control) (Botrytis cinerea): 0%
- Test G rating (% disease control) [1]: 99%
- Test F rating (% disease control) [2]: 100%
- Test D rating (% disease control) (Stagonospora nodorum): 99%

Compound: CC(C)(C)CC1CC(C(O)(Cn2cncn2)c2ccc(Cl)cc2)=NO1 (single isomer, unassigned) [Compound 76]
- Test E rating (% disease control) (Zymoseptoria tritici): 0%
- Test B rating (% disease control) (Botrytis cinerea): 0%
- Test G rating (% disease control) [1]: 89%
- Test F rating (% disease control) [2]: 0%
- Test D rating (% disease control) (Stagonospora nodorum): 0%

Compound: OC(Cn1cncn1)(C1=NOC(Cc2ccc(Cl)cc2)C1)c1ccc(Cl)cc1 (single isomer, unassigned) [Compound 201]
- Test E rating (% disease control) (Zymoseptoria tritici): 1%
- Test B rating (% disease control) (Botrytis cinerea): 0%
- Test G rating (% disease control) [1]: 96%
- Test F rating (% disease control) [2]: 100%
- Test D rating (% disease control) (Stagonospora nodorum): 50%

Compound: CC(C)(C)C(O)(Cn1cncn1)C1=NOC(COc2cccc(Cl)c2)C1 (single isomer, unassigned) [Compound 231]
- Test E disease control rating (Zymoseptoria tritici; [3]): 6%
- Test B disease control rating (Botrytis cinerea; [3]): 80%
- Test G disease control rating [1, 3]: 99%
- Test F disease control rating [2, 3]: 100%
- Test D disease control rating (Stagonospora nodorum; [3]): 100%

Compound: OC(Cn1cncn1)(C1=NOC(CSc2ccccc2)C1)c1ccc(Cl)cc1 (single isomer, unassigned) [Compound 51]
- Test E rating (% disease control) (Zymoseptoria tritici): 1%
- Test B rating (% disease control) (Botrytis cinerea): 16%
- Test G rating (% disease control) [1]: 81%
- Test F rating (% disease control) [2]: 0%
- Test D rating (% disease control) (Stagonospora nodorum): 89%

Compound: OC(Cn1cncn1)(C1=NOC(c2ccc(C(F)(F)F)cc2)C1)c1ccc(Cl)cc1 (single isomer, unassigned) [Compound 146]
- Test E rating (% disease control) (Zymoseptoria tritici): 99%
- Test B rating (% disease control) (Botrytis cinerea): 0%
- Test G rating (% disease control) [1]: 99%
- Test F rating (% disease control) [2]: 100%
- Test D rating (% disease control) (Stagonospora nodorum): 100%

Compound: CC(C)(C)C(O)(Cn1cncn1)C1=NOC(COc2ccc(Cl)nc2)C1 (single isomer, unassigned) [Compound 97]
- Test E rating (% disease control) (Zymoseptoria tritici): 0%
- Test B rating (% disease control) (Botrytis cinerea): 0%
- Test G rating (% disease control) [1]: 94%
- Test F rating (% disease control) [2]: 98%
- Test D rating (% disease control) (Stagonospora nodorum): 99%

Compound: CCCCC(O)(Cn1cncn1)C1=NOC(c2ccc(Cl)cc2)C1 (single isomer, unassigned) [Compound 155]
- Test E rating (% disease control) (Zymoseptoria tritici): 2%
- Test B rating (% disease control) (Botrytis cinerea): 0%
- Test G rating (% disease control) [1]: 100%
- Test F rating (% disease control) [2]: 100%
- Test D rating (% disease control) (Stagonospora nodorum): 100%

Compound: CC(C)(C)C(O)(Cn1cncn1)C1=NOC(COc2ccc3c(c2)OCO3)C1 (single isomer, unassigned) [Compound 46]
- Test E rating (% disease control) (Zymoseptoria tritici): 0%
- Test B rating (% disease control) (Botrytis cinerea): 19%
- Test G rating (% disease control) [1]: 73%
- Test F rating (% disease control) [2]: 85%
- Test D rating (% disease control) (Stagonospora nodorum): 76%

Compound: OC(Cn1cncn1)(C1=NOC(Cn2ccc(C(F)(F)F)n2)C1)c1ccc(Cl)cc1 (single isomer, unassigned) [Compound 194]
- Test E rating (% disease control) (Zymoseptoria tritici): 0%
- Test B rating (% disease control) (Botrytis cinerea): 0%
- Test G rating (% disease control) [1]: 99%
- Test F rating (% disease control) [2]: 100%
- Test D rating (% disease control) (Stagonospora nodorum): 11%

Compound: CC(C)(C)C(O)(Cn1cncn1)C1=NOC(COc2ccc(C(F)(F)F)cc2)C1 (single isomer, unassigned) [Compound 88]
- Test E rating (% disease control) (Zymoseptoria tritici): 76%
- Test B rating (% disease control) (Botrytis cinerea): 0%
- Test G rating (% disease control) [1]: 99%
- Test F rating (% disease control) [2]: 100%
- Test D rating (% disease control) (Stagonospora nodorum): 99%

Compound: CC(C)(C)C(O)(Cn1cncn1)C1=NOC(COc2ccc(I)cc2)C1 (single isomer, unassigned) [Compound 185]
- Test E rating (% disease control) (Zymoseptoria tritici): 0%
- Test B rating (% disease control) (Botrytis cinerea): 0%
- Test G rating (% disease control) [1]: 99%
- Test F rating (% disease control) [2]: 100%
- Test D rating (% disease control) (Stagonospora nodorum): 100%

Compound: CC(C)(C)C(O)(Cn1cncn1)C1=NOC(COc2ccc(OCc3ccccc3)cc2)C1 (single isomer, unassigned) [Compound 72]
- Test E rating (% disease control) (Zymoseptoria tritici): 0%
- Test B rating (% disease control) (Botrytis cinerea): 19%
- Test G rating (% disease control) [1]: 56%
- Test F rating (% disease control) [2]: 0%
- Test D rating (% disease control) (Stagonospora nodorum): 0%

Compound: OC(Cn1cncn1)(C1=NOC(c2ccc(Cl)cc2)C1)c1ccc(Cl)cc1Cl (single isomer, unassigned) [Compound 141]
- Test E rating (% disease control) (Zymoseptoria tritici): 1%
- Test B rating (% disease control) (Botrytis cinerea): 0%
- Test G rating (% disease control) [1]: 84%
- Test F rating (% disease control) [2]: 99%
- Test D rating (% disease control) (Stagonospora nodorum): 0%
